Experimental data taken from US12146004B2, “Polymyxin compounds and uses thereof” (priority 2014, dated 2024).
Converted amounts (≈) assume the structure as drawn.

How the values were obtained:
Assay type in all cases: cell-based
Acinetobacter baumannii = test system: Acinetobacter baumannii
Outline: (§1)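 In vitro susceptibility was determined across up to nine strains of each pathogen, some resistant. Potency is given as MIC, μg/mL.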

Escherichia coli = test system: Escherichia coli
Outline: as §1

Klebsiella pneumoniae = test system: Klebsiella pneumoniae
Outline: as §1

Pseudomonas aeruginosa = test system: Pseudomonas aeruginosa
Outline: as §1

HK-2 cells = test system: HK-2 cells
From the text: Values are reported relative to Polymyxin B.

## CC(C)CC1CNCC(C(=O)N[C@H](C(=O)N[C@@H](CN)C(=O)N[C@H]2CCNC(=O)[C@H]([C@@H](C)O)NC(=O)[C@H](CCN)NC(=O)[C@H](CCN)NC(=O)[C@H](CC(C)C)NC(=O)[C@@H](Cc3ccc(-c4ccccc4)cc3)NC(=O)[C@H](CCN)NC2=O)C(C)O)C1 (single isomer, unassigned; isomer 1) [Example 3, (trans-5-(isobutyl-piperidine)-3-carbonyl L-Thr-L-Dap-polymyxin [D-(4-phenyl)Phe]-6] heptapeptide. Isomer 1]
Acinetobacter baumannii
  MIC A. baumanii 053: 64 µg/mL (≈ 53.7 µM)
  MIC A. baumanii 056: 4 µg/mL (≈ 3.35 µM)
  MIC A. baumanii ATCC BAA-747: 2 µg/mL (≈ 1.68 µM)
Escherichia coli
  MIC E. coli 058: 8 µg/mL (≈ 6.71 µM)
  MIC E. coli 059: 8 µg/mL (≈ 6.71 µM)
  MIC E. coli 060: 16 µg/mL (≈ 13.4 µM)
  MIC E. coli 061: 32 µg/mL (≈ 26.8 µM)
  MIC E. coli ATCC 25922: 0.5 µg/mL (≈ 0.419 µM)
Klebsiella pneumoniae
  MIC K. pneumoniae 062: >64 µg/mL
  MIC K. pneumoniae 063: >64 µg/mL
  MIC K. pneumoniae 064: 32 µg/mL (≈ 26.8 µM)
  MIC K. pneumoniae 065: 32 µg/mL (≈ 26.8 µM)
  MIC K. pneumoniae 067: >64 µg/mL
  MIC K. pneumoniae ATCC 4352: 0.5 µg/mL (≈ 0.419 µM)
Pseudomonas aeruginosa
  MIC P. aeruginosa 068: 4 µg/mL (≈ 3.35 µM)
  MIC P. aeruginosa 070: 4 µg/mL (≈ 3.35 µM)
  MIC P. aeruginosa ATCC 27853: 1 µg/mL (≈ 0.839 µM)
HK-2 cells
  HK-2 IC50: 34 µg/mL

## CC(C)CC(CN)C(=O)N[C@H](C(=O)N[C@@H](CN)C(=O)N[C@H]1CCNC(=O)[C@H]([C@@H](C)O)NC(=O)[C@H](CCN)NC(=O)[C@H](CCN)NC(=O)[C@H](CC(C)C)NC(=O)[C@@H](Cc2ccc(-c3ccc(C(F)(F)F)cc3)cc2)NC(=O)[C@H](CCN)NC1=O)C(C)O (single isomer, unassigned; isomer 1) [Example 20, 2-Aminomethyl-4-methyl pentanoyl polymyxin L-Thr-L-Dap-polymyxin [D-{4-(4-trifluoromethyl)phenyl} Phe]-6]heptapeptide. Isomer 1]
Acinetobacter baumannii
  MIC A. baumanii ATCC BAA-747: 0.5 µg/mL (≈ 0.41 µM)
Escherichia coli
  MIC E. coli 058: 4 µg/mL (≈ 3.28 µM)
  MIC E. coli ATCC 25922: 1 µg/mL (≈ 0.819 µM)
Klebsiella pneumoniae
  MIC K. pneumoniae 065: 1 µg/mL (≈ 0.819 µM)
  MIC K. pneumoniae ATCC 4352: 0.5 µg/mL (≈ 0.41 µM)
Pseudomonas aeruginosa
  MIC P. aeruginosa ATCC 27853: 1 µg/mL (≈ 0.819 µM)
HK-2 cells
  HK-2 IC50: 10 µg/mL

## CC(C)C[C@@H]1NC(=O)[C@@H](CC2CCCCC2)NC(=O)[C@H](CCN)NC(=O)[C@@H](NC(=O)[C@H](CN)NC(=O)[C@@H](NC(=O)CC(N)C2CCCCC2)C(C)O)CCNC(=O)[C@H]([C@@H](C)O)NC(=O)[C@H](CCN)NC(=O)[C@H](CCN)NC1=O (single isomer, unassigned; isomer 1) [Example 32, 3-amino-3-cyclohexylpropanoyl L-Thr-L-Dap-polymyxin [D-cyclohexylalanine]-6 heptapeptide. Isomer 1]
Acinetobacter baumannii
  MIC A. baumanii 056: 64 µg/mL (≈ 57.7 µM)
  MIC A. baumanii ATCC BAA-747: 0.25 µg/mL (≈ 0.226 µM)
  MIC A. baumanii NCTC 13424: 0.06 µg/mL (≈ 0.0541 µM)
Escherichia coli
  MIC E. coli 058: 2 µg/mL (≈ 1.8 µM)
  MIC E. coli 061: 16 µg/mL (≈ 14.4 µM)
  MIC E. coli ATCC 25922: 0.25 µg/mL (≈ 0.226 µM)
  MIC E. coli NCTC 9001: 0.125 µg/mL (≈ 0.113 µM)
Klebsiella pneumoniae
  MIC K. pneumoniae 063: 16 µg/mL (≈ 14.4 µM)
  MIC K. pneumoniae ATCC 4352: 0.06 µg/mL (≈ 0.0541 µM)
  MIC K. pneumoniae ATCC 13882: 0.25 µg/mL (≈ 0.226 µM)
Pseudomonas aeruginosa
  MIC P. aeruginosa 068: 4 µg/mL (≈ 3.61 µM)
  MIC P. aeruginosa 070: 4 µg/mL (≈ 3.61 µM)
  MIC P. aeruginosa ATCC 27853: 0.5 µg/mL (≈ 0.451 µM)
  MIC P. aeruginosa CCUG 59347: 0.5 µg/mL (≈ 0.451 µM)
HK-2 cells
  HK-2 IC50: 73 µg/mL

## CCCCCCCCC1CNCC1C(=O)N[C@H](C(=O)N[C@@H](CCN)C(=O)N[C@H]1CCNC(=O)[C@H]([C@@H](C)O)NC(=O)[C@H](CCN)NC(=O)[C@H](CCN)NC(=O)[C@H](CC(C)C)NC(=O)[C@@H](Cc2ccc(-c3ccccc3)cc2)NC(=O)[C@H](CCN)NC1=O)C(C)O (single isomer, unassigned; isomer 2) [Example 8, trans-4-octylpyrrolidine-3-carbonyl polymyxin [D-(4-phenyl)Phe]-6] nonapeptide. Isomer 2]
Acinetobacter baumannii
  MIC A. baumanii 053: 4 µg/mL (≈ 3.2 µM)
  MIC A. baumanii 056: 2 µg/mL (≈ 1.6 µM)
  MIC A. baumanii ATCC BAA-747: 1 µg/mL (≈ 0.801 µM)
Escherichia coli
  MIC E. coli 058: 2 µg/mL (≈ 1.6 µM)
  MIC E. coli 059: 1 µg/mL (≈ 0.801 µM)
  MIC E. coli 060: 2 µg/mL (≈ 1.6 µM)
  MIC E. coli 061: 4 µg/mL (≈ 3.2 µM)
  MIC E. coli ATCC 25922: 1 µg/mL (≈ 0.801 µM)
Klebsiella pneumoniae
  MIC K. pneumoniae 062: 4 µg/mL (≈ 3.2 µM)
  MIC K. pneumoniae 064: 1 µg/mL (≈ 0.801 µM)
  MIC K. pneumoniae 065: 1 µg/mL (≈ 0.801 µM)
  MIC K. pneumoniae 066: 0.5 µg/mL (≈ 0.4 µM)
  MIC K. pneumoniae 067: 8 µg/mL (≈ 6.41 µM)
  MIC K. pneumoniae ATCC 4352: 1 µg/mL (≈ 0.801 µM)
Pseudomonas aeruginosa
  MIC P. aeruginosa 068: 2 µg/mL (≈ 1.6 µM)
  MIC P. aeruginosa 070: 2 µg/mL (≈ 1.6 µM)
  MIC P. aeruginosa ATCC 27853: 1 µg/mL (≈ 0.801 µM)
HK-2 cells
  HK-2 IC50: 3 µg/mL

## CCCCCCCCC1CNCC1C(=O)N[C@H](C(=O)N[C@@H](CCN)C(=O)N[C@H]1CCNC(=O)[C@H]([C@@H](C)O)NC(=O)[C@H](CCN)NC(=O)[C@H](CCN)NC(=O)[C@H](CC(C)C)NC(=O)[C@@H](Cc2ccccc2-c2ccccc2)NC(=O)[C@H](CCN)NC1=O)C(C)O (single isomer, unassigned; isomer 2) [Example 10, trans-4-octylpyrrolidine-3-carbonyl polymyxin [D-(2-phenyl)Phe]-6] nonapeptide. Isomer 2]
Acinetobacter baumannii
  MIC A. baumanii 053: 4 µg/mL (≈ 3.2 µM)
  MIC A. baumanii 056: 4 µg/mL (≈ 3.2 µM)
  MIC A. baumanii ATCC BAA-747: 1 µg/mL (≈ 0.801 µM)
Escherichia coli
  MIC E. coli 058: 1 µg/mL (≈ 0.801 µM)
  MIC E. coli 059: 1 µg/mL (≈ 0.801 µM)
  MIC E. coli 060: 2 µg/mL (≈ 1.6 µM)
  MIC E. coli 061: 2 µg/mL (≈ 1.6 µM)
  MIC E. coli ATCC 25922: 2 µg/mL (≈ 1.6 µM)
Klebsiella pneumoniae
  MIC K. pneumoniae 062: 2 µg/mL (≈ 1.6 µM)
  MIC K. pneumoniae 063: 8 µg/mL (≈ 6.41 µM)
  MIC K. pneumoniae 064: 2 µg/mL (≈ 1.6 µM)
  MIC K. pneumoniae 065: 1 µg/mL (≈ 0.801 µM)
  MIC K. pneumoniae 066: 4 µg/mL (≈ 3.2 µM)
  MIC K. pneumoniae 067: 4 µg/mL (≈ 3.2 µM)
  MIC K. pneumoniae ATCC 4352: 1 µg/mL (≈ 0.801 µM)
Pseudomonas aeruginosa
  MIC P. aeruginosa 068: 2 µg/mL (≈ 1.6 µM)
  MIC P. aeruginosa 070: 2 µg/mL (≈ 1.6 µM)
  MIC P. aeruginosa ATCC 27853: 2 µg/mL (≈ 1.6 µM)
HK-2 cells
  HK-2 IC50: 4 µg/mL

## CC(C)CC1CNCC(C(=O)N[C@H](C(=O)N[C@@H](CN)C(=O)N[C@H]2CCNC(=O)[C@H]([C@@H](C)O)NC(=O)[C@H](CCN)NC(=O)[C@H](CCN)NC(=O)[C@H](CC(C)C)NC(=O)[C@@H](Cc3ccc(Br)cc3)NC(=O)[C@H](CCN)NC2=O)C(C)O)C1 (single isomer, unassigned; isomer 2) [Example 12, (trans-5-(isobutyl-piperidine)-3-carbonyl L-Thr-L-Dap-polymyxin [D-(4-bromo Phe)]-6] heptapeptide Isomer 2]
Acinetobacter baumannii
  MIC A. baumanii 053: 8 µg/mL (≈ 6.69 µM)
  MIC A. baumanii ATCC BAA-747: 0.125 µg/mL (≈ 0.105 µM)
Escherichia coli
  MIC E. coli 058: 0.25 µg/mL (≈ 0.209 µM)
  MIC E. coli 059: 1 µg/mL (≈ 0.837 µM)
  MIC E. coli 060: 1 µg/mL (≈ 0.837 µM)
  MIC E. coli 061: 1 µg/mL (≈ 0.837 µM)
  MIC E. coli ATCC 25922: 0.125 µg/mL (≈ 0.105 µM)
Klebsiella pneumoniae
  MIC K. pneumoniae 062: 8 µg/mL (≈ 6.69 µM)
  MIC K. pneumoniae 063: 4 µg/mL (≈ 3.35 µM)
  MIC K. pneumoniae 064: 1 µg/mL (≈ 0.837 µM)
  MIC K. pneumoniae 065: 0.5 µg/mL (≈ 0.418 µM)
  MIC K. pneumoniae 066: 1 µg/mL (≈ 0.837 µM)
  MIC K. pneumoniae 067: 8 µg/mL (≈ 6.69 µM)
  MIC K. pneumoniae ATCC 4352: 0.125 µg/mL (≈ 0.105 µM)
Pseudomonas aeruginosa
  MIC P. aeruginosa 068: 1 µg/mL (≈ 0.837 µM)
  MIC P. aeruginosa 070: 1 µg/mL (≈ 0.837 µM)
  MIC P. aeruginosa ATCC 27853: 0.25 µg/mL (≈ 0.209 µM)
HK-2 cells
  HK-2 IC50: 54 µg/mL
